Data as given in patent US20020028807A1, “Non-nucleoside reverse transcriptase inhibitors” (priority 2000, published 2002).

Tests used:
[1] = target: T1, HIV-1 RT wild-type (WT) (Human immunodeficiency virus type 1 group M subtype B, UniProt P03366); assay: Reverse transcriptase (RT) assay, wild-type enzyme; assay type: biochemical
T1 construct: an HIV RT clone pKRT2 containing only the RT p66 gene regulated by the lac operon/trc promoter; made in house; host or cells: E. coli JM109, vector pKK233-2

[2] = target: T2, HIV-1 RT V106A (Human immunodeficiency virus type 1 group M subtype B, UniProt P03366, V705A); assay: Reverse transcriptase (RT) assay, V106A mutant; assay type: biochemical
T2 construct: an HIV RT clone pKRT2 containing only the RT p66 gene regulated by the lac operon/trc promoter; made in house; host or cells: E. coli JM109, vector pKK233-2
Method in brief: (§1)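 First, RT mutants were generated by site-directed mutagenesis of the BH10 p66 gene, expressed in E. coli and purified as p66/p51 heterodimer. Then compounds were tested for inhibition of DNA synthesis on biotinylated oligo d(G)-primed poly r(C), with 3H-dGTP supplying label.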

[3] = target: T3, HIV-1 RT P23L (Human immunodeficiency virus type 1 group M subtype B, UniProt P03366, P835L); assay: Reverse transcriptase (RT) assay, P23L mutant; assay type: biochemical
T3 construct: an HIV RT clone pKRT2 containing only the RT p66 gene regulated by the lac operon/trc promoter; made in house; host or cells: E. coli JM109, vector pKK233-2
Source text: (§2) Among the enzymes for which Human Immunodeficiency Virus (HIV-1) encodes is a reverse transcriptase (1), so-named because it transcribes a DNA copy from an RNA template. This activity can be quantitatively measured in a cell-free enzyme assay and is based upon the observation that reverse transcriptase is able to use a synthetic template poly r(C) primed with a biotinylated oligo d(G) to transcribe a radio-labelled DNA strand utilising 3H-dGTP as a substrate. The assay described below utilises the wild-type enzyme (which is the predominant form of the enzyme observed in patients infected with HIV-1) and can also be used with mutant RT enzymes (for example, Y181C, prepared by site-directed mutagenesis in which the tyrosine residue at codon 181 has been replaced by a cysteine residue) in analogous assay conditions. This assay allows compounds to be evaluated for their effectiveness at inhibiting the mutant enzymes.
(§3) Some HIV-1 IIIB clone BH10 RT mutants were provided by Dr. C.-K. Shih (Boehringer Ingelheim Pharmaceutials Inc., U.S.A.) in the vector pKK233-2 (Pharmacia). Briefly an HIV RT clone pKRT2 containing only the RT p66 gene regulated by the lac operon/trc promoter was obtained from Dr. W. Summers (Yale University) (2). A variety of specific amino acid substitutions were introduced into the wild-type RT gene by site-directed mutagenesis. RT clones were subcloned into the pKK233-2 bacterial expression vector. Clones provided included wild-type, Val106Ala, Tyr181Cys, Tyr188Cys, Tyr188Leu, Gly190Ala and Pro236Leu. Others were made in-house by site-directed mutagenesis of the pKK233-2 RT clones including Lys103Asn, Lys103Asn/Tyr181Cys, Lys103Asn/Leu100Ile, Lys103Asn/Pro225His, and Lys103Asn/Val108Ile.
Purification of recombinant reverse transcriptase was performed using a combination of methods previously described (3). A single colony from a fresh plate of transformed JM109 cells was used to initiate growth of a pre-culture grown o/n at 37° C. Two liters of growth medium were inoculated with this pre-culture. At OD600˜1.5 (5-6 h at 37° C.), RT gene expression was induced with IPTG (1 mM final), and the fermentation was continued for a few more hours at 37° C. After centrifugation, supernatants were discarded while cell pellets were pooled and stored at −80° C. until purification. Cells were thawed at 4° C. overnight and suspended in lysis buffer (MES 50 mM pH 6, EDTA 1 mM, 10% v/v glyerol, 0.02% w/v OBG, 0.02% w/v sodium azide). Lysozyme was added and the mixture was incubated on ice for 40 minutes. After homogenization using a bounce in presence of lysozyme and sonication, the cells were centrifuged for 30 minutes. Supernatant (S1) was saved and stored at 4° C. […]

[4] = target: T4, HIV-1 RT G190A (Human immunodeficiency virus type 1 group M subtype B, UniProt P03366, G789A); assay: Reverse transcriptase (RT) assay, G190A mutant; assay type: biochemical
T4 construct: an HIV RT clone pKRT2 containing only the RT p66 gene regulated by the lac operon/trc promoter; made in house; host or cells: E. coli JM109, vector pKK233-2
Source text: as §2, §3
Purification of recombinant reverse transcriptase was performed using a combination of methods previously described (3). A single colony from a fresh plate of transformed JM109 cells was used to initiate growth of a pre-culture grown o/n at 37° C. Two liters of growth medium were inoculated with this pre-culture. At OD600˜1.5 (5-6 h at 37° C.), RT gene expression was induced with IPTG (1 mM final), and the fermentation was continued for a few more hours at 37° C. After centrifugation, supernatants were discarded while cell pellets were pooled and stored at −80° C. until purification. Cells were thawed at 4° C. overnight and suspended in lysis buffer (MES 50 mM pH 6, EDTA 1 mM, 10% v/v glyerol, 0.02% w/v OBG, 0.02% w/v sodium azide). Lysozyme was added and the mixture was incubated on ice for 40 minutes. After homogenization using a bounce in presence of lysozyme and sonication, the cells were centrifuged for 30 minutes. Supernatant (S1) was saved and stored at 4° C. The centrifuged pellet was resuspended in extraction buffer (MES 50 mM pH 6, KPO4 50 mM pH 6, KCl 100 mM, 10% v/v glycerol, 0.02% w/v OBG, 0.02% w/v sodium axide) and stirred for 30 minutes at 4° C. This second mixture was centrifuged again and the supernatant (S2) was saved. The above procedure was repeated 2 more times saving supernatants S3 and S4 and one last extraction was performed overnight (S5). Polymin P (0.005% final) was added to the combined supernatants to remove nucleic acids. This solution was stirred for 75 minutes at 4° C. and centrifuged for 1 h. The supernatant (SS1) was precipitated on ice with 20% w/v ammonium sulfate and stirred for 1 h at 4° C. The mixture was then centrifuged and the resulting supernatant (SS2) was precipitated with additional 40% w/v ammonium sulfate (60% total), stirred for 1 h and centrifuged again. The final pellet (P1) was stored overnight at 4° C. before undergoing purification the following day. All steps of the purification were performed at 4° C. unless otherwise stated.
Pellet (P1) was resuspended into MES 50 mM pH 6, KPO4 10 mM pH 6, KCl 100 mM, 10% v/v glycerol, 0.02% w/v OBG, 0.02% w/v sodium azide. The suspension was dialysis against the same buffer overnight using 12-14 kD MWCO dialysis tubing. […]

[5] = target: T5, HIV-1 RT K103N/V108I (Human immunodeficiency virus type 1 group M subtype B, UniProt P03366, K702N/V707I); assay: Reverse transcriptase (RT) assay, K103N/V108I mutant; assay type: biochemical
T5 construct: an HIV RT clone pKRT2 containing only the RT p66 gene regulated by the lac operon/trc promoter; made in house; host or cells: E. coli JM109, vector pKK233-2
Method in brief: as §1

[6] = test system: HIV coding for mutant reverse transcriptase K103N; assay: ELISA (p24) assay of HIV replication in C8166 cell culture, K103N virus; assay type: cell-based, HIV-1; conditions: Human immunodeficiency virus 1, C8166, 72 h, read-out: EC50 K103N
Description: (§4) Compounds of the invention were tested for their ability to inhibit HIV replication in cell culture in a 96-well plate assay. Complete RPMI 1640, consisting of RPMI 1640+10% fetal bovine serum, 10 μg/ml gentamycin and 10 μM β-mercaptoethanol was used for dilution of the compound as well as cell growth medium. The T lymphocyte cell line C8166 was infected at a multiplicity of infection of 0.001 with viruses coding for wild-type and mutant reverse transcriptase. Cells were then incubated for three days in the presence of serial dilutions of the compounds of the invention. The supernatant was pooled from eight replica wells and the concentration of extracellular p24 was determined using a commercially available HIV-1 p24 antigen assay kit (Beckman-Coulter®). The level of inhibition (% inhibition) was calculated with the following equation: [formula]

[7] = test system: HIV coding for mutant reverse transcriptase V106A; assay: ELISA (p24) assay of HIV replication in C8166 cell culture, V106A virus; assay type: cell-based, HIV-1; conditions: Human immunodeficiency virus 1, C8166, 72 h, read-out: EC50 V106A
Description: as §4

[8] = test system: HIV coding for mutant reverse transcriptase Y188L; assay: ELISA (p24) assay of HIV replication in C8166 cell culture, Y188L virus; assay type: cell-based, HIV-1; conditions: Human immunodeficiency virus 1, C8166, 72 h, read-out: EC50 Y188L
Description: as §4

[9] = test system: HIV coding for mutant reverse transcriptase K103N/P225H; assay: ELISA (p24) assay of HIV replication in C8166 cell culture, K103N/P225H virus; assay type: cell-based, HIV-1; conditions: Human immunodeficiency virus 1, C8166, 72 h, read-out: EC50 K103N/P225H
Description: as §4

Question: How did the IC50 [1] turn out when CCN1c2ncc(CCOc3cc[n+]([O-])c4ccccc34)cc2C(=O)N(C)c2ccc(F)nc21 [compound 11, 5,11-Dihydro-11-ethyl-2-fluoro-5-methyl-8-{2-{(1-oxido-4-quinolinyl)oxy}-ethyl}-6H-dipyrido[3,2-b:2′,3′-e][1,4]diazepin-6-one] was run?
Answer: 9.5 nM

Question: What about the IC50 [2] of the same compound?
Answer: 336 nM

Question: And the IC50 [3]?
Answer: 56 nM

Question: And the IC50 [4]?
Answer: 19 nM

Question: And the IC50 [5]?
Answer: 55 nM

Question: And the EC50 [6]?
Answer: 2 nM

Question: What about the EC50 [7] of the same compound?
Answer: 28 nM

Question: And the EC50 [8]?
Answer: 52 nM

Question: What about the EC50 [9] of the same compound?
Answer: 2 nM

Question: CCN1c2ncc(CCOc3cc[n+]([O-])c4ccccc34)cc2C(=O)N(C)c2ccc(Cl)nc21 [compound 17, 2-Chloro-5,11-dihydro-11-ethyl-5-methyl-8-{2-{(1-oxido-4-quinolinyl)oxy}-ethyl}-6H-dipyrido[3,2-b:2′,3′-e][1,4]diazepin-6-one] was tested. Which IC50 [1] did it give?
Answer: 14 nM

Question: What about the IC50 [2] of the same compound?
Answer: 319 nM

Question: And the IC50 [3]?
Answer: 60 nM

Question: What about the IC50 [4] of the same compound?
Answer: 25 nM

Question: And the IC50 [5]?
Answer: 83 nM

Question: What about the EC50 [6] of the same compound?
Answer: 1.5 nM

Question: What about the EC50 [7] of the same compound?
Answer: 24 nM

Question: What about the EC50 [8] of the same compound?
Answer: 58 nM

Question: What about the EC50 [9] of the same compound?
Answer: 1.2 nM

Question: What does the source list for CCN1c2ncc(CCOc3cc[n+]([O-])c4ccccc34)cc2C(=O)N(C)c2cccnc21 [compound 21, 5,11-Dihydro-11-ethyl-5-methyl-8-{2-{(1-oxido-4-quinolinyl)oxy}ethyl}-6H-dipyrido[3,2-b:2′,3′-e][1,4]diazepin-6-one]?
Answer: IC50 [1]: 17 nM; IC50 [2]: 1110 nM; IC50 [3]: 129 nM; IC50 [4]: 26 nM; IC50 [5]: 120 nM; EC50 [6]: 3.5 nM; EC50 [7]: 65 nM; EC50 [8]: 67 nM; EC50 [9]: 2.9 nM
